# Activity calls are given as the source filed them. The calls are words filed in the database; no cut-off is given here.
# Experiments:
# [1] = target: T1, Protein deacetylase HDAC6 (Homo sapiens) (UniProt Q9UBN7); assay: Inhibition of human recombinant HDAC6 at 10^-5 M after 30 mins using fluorogenic substrate by fluorimetric assay relative to control
# T1 sequence (whole entry): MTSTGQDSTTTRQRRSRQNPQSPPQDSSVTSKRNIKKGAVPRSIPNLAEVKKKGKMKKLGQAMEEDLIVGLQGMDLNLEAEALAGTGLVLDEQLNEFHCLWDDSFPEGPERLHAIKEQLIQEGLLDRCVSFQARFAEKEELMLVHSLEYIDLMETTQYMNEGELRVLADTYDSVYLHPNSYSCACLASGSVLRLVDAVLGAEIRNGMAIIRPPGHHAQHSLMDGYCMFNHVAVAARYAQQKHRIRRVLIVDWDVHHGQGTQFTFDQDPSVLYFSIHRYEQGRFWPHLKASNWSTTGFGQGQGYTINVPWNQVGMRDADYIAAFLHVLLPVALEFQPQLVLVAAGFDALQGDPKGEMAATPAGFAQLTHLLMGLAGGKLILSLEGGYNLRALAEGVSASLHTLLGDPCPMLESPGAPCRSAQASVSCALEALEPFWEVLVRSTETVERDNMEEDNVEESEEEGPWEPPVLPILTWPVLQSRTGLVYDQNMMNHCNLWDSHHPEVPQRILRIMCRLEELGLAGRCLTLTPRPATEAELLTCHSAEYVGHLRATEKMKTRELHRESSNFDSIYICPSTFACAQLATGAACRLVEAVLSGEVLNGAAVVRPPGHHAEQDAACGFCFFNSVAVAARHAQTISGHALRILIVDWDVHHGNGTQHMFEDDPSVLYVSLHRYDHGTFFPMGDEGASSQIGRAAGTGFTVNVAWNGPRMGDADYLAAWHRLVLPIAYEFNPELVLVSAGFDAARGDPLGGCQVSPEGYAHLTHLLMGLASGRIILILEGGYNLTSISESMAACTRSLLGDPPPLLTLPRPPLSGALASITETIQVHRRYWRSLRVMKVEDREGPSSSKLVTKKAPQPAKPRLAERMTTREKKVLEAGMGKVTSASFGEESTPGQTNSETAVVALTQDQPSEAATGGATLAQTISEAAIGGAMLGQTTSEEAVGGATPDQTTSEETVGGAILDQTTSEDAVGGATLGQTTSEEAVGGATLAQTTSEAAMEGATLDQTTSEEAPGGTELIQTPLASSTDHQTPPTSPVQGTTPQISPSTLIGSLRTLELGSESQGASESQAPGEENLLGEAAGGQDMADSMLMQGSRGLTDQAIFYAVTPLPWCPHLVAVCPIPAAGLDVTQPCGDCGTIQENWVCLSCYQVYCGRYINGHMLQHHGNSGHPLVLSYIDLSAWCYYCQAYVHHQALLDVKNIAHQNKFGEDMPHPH
# [2] = target: Histone deacetylase 3 (Homo sapiens) (UniProt O15379); assay: Inhibition of human recombinant HDAC3 at 10^-5 M after 10 mins using fluorogenic substrate by fluorimetric assay relative to control
# HCT-116 = assay: Antiproliferative activity against human HCT116 cells after 72 hrs by MTS assay; assay type: functional; conditions: Homo sapiens, HCT-116, 72 h
# HT-29 = assay: Antiproliferative activity against human HT-29 cells after 72 hrs by MTS assay; assay type: functional; conditions: Homo sapiens, HT-29, 72 h
# [3] = target: Histone deacetylase 9 (Homo sapiens) (UniProt Q9UKV0); assay: Inhibition of human recombinant HDAC9 at 10^-5 M after 30 mins using fluorogenic substrate by fluorimetric assay relative to control
# [4] = target: Histone deacetylase 2 (Homo sapiens) (UniProt Q92769); assay: Inhibition of human recombinant HDAC2 at 10^-5 M after 15 mins using fluorogenic substrate by fluorimetric assay relative to control
# K-562R = assay: Antiproliferative activity against human K562R cells after 72 hrs by MTS assay; assay type: functional; conditions: Homo sapiens, K-562R, 72 h
# K562 = assay: Antiproliferative activity against human K562 cells after 72 hrs by MTS assay; assay type: functional; conditions: Homo sapiens, K562, 72 h
# [5] = Aqueous solubility of the compound; assay type: physicochemical; conditions: water
# [6] = Induction of apoptosis in human BL2 cells assessed as early apoptotic cells at 10 nM after 48 hrs by annexin V-FITC/propidium iodide double staining-based flow cytometry (reference value: 8.2%); assay type: functional
# PBL = assay: Cytotoxicity against human PBL cells assessed as cell growth inhibition after 72 hrs by MTS assay; assay type: ADME, cell-based
# [7] = target: Histone deacetylase 11 (Homo sapiens) (UniProt Q96DB2); assay: Inhibition of human recombinant HDAC11 at 10^-5 M after 45 mins using fluorogenic substrate by fluorimetric assay relative to control
# [8] = Lipophilicity, log P of the compound; assay type: physicochemical; conditions: octanol/water
# [9] = target: Histone deacetylase 7 (Homo sapiens) (UniProt Q8WUI4); assay: Inhibition of human recombinant HDAC7 at 10^-5 M after 45 mins using fluorogenic substrate by fluorimetric assay relative to control
# [10] = target: T2, Histone deacetylase 8 (Homo sapiens) (UniProt Q9BY41); assay: Inhibition of human recombinant HDAC8 at 10^-5 M after 60 mins using fluorogenic substrate by fluorimetric assay relative to control
# T2 sequence (whole entry): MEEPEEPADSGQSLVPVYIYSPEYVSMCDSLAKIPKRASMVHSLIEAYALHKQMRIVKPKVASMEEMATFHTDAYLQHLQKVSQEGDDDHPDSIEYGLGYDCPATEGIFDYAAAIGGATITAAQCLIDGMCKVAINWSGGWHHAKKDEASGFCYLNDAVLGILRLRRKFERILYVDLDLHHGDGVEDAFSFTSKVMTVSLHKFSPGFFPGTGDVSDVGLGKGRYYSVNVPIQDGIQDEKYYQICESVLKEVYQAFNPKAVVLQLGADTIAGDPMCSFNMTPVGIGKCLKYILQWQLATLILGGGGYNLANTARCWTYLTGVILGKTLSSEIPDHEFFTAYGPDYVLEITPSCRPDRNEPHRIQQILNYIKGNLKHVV
# A549 = assay: Antiproliferative activity against human A549 cells after 72 hrs by MTS assay; assay type: functional; conditions: Homo sapiens, A549, 72 h
# Histone deacetylase 11 = target: T3, Histone deacetylase 11 (Homo sapiens, UniProt Q96DB2); assay: Inhibition of human recombinant HDAC11 after 30 mins using fluorogenic substrate by fluorimetric assay
# T3 sequence (Q96DB2 whole entry): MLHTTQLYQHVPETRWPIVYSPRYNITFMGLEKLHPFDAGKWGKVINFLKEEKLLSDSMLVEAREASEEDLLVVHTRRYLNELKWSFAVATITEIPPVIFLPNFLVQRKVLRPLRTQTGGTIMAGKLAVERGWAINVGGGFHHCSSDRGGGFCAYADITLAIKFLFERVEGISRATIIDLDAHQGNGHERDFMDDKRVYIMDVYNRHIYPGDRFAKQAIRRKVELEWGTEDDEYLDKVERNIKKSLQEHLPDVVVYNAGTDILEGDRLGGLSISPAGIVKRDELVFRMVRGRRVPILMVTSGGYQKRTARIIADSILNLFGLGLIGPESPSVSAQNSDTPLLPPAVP
# Histone deacetylase 3 (Homo sapiens), sequence (O15379 whole entry): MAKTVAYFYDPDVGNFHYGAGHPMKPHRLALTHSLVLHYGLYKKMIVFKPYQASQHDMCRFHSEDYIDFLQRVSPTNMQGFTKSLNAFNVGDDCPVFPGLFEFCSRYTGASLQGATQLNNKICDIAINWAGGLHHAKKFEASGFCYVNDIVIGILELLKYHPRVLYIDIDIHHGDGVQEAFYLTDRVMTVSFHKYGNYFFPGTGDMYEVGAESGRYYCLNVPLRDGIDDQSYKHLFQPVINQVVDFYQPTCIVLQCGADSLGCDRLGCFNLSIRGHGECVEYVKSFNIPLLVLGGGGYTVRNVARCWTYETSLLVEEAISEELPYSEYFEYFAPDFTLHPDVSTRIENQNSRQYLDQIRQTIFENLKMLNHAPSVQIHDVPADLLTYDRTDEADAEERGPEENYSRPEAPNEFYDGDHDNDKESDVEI
# Histone deacetylase 7 (Homo sapiens), sequence (Q8WUI4 whole entry): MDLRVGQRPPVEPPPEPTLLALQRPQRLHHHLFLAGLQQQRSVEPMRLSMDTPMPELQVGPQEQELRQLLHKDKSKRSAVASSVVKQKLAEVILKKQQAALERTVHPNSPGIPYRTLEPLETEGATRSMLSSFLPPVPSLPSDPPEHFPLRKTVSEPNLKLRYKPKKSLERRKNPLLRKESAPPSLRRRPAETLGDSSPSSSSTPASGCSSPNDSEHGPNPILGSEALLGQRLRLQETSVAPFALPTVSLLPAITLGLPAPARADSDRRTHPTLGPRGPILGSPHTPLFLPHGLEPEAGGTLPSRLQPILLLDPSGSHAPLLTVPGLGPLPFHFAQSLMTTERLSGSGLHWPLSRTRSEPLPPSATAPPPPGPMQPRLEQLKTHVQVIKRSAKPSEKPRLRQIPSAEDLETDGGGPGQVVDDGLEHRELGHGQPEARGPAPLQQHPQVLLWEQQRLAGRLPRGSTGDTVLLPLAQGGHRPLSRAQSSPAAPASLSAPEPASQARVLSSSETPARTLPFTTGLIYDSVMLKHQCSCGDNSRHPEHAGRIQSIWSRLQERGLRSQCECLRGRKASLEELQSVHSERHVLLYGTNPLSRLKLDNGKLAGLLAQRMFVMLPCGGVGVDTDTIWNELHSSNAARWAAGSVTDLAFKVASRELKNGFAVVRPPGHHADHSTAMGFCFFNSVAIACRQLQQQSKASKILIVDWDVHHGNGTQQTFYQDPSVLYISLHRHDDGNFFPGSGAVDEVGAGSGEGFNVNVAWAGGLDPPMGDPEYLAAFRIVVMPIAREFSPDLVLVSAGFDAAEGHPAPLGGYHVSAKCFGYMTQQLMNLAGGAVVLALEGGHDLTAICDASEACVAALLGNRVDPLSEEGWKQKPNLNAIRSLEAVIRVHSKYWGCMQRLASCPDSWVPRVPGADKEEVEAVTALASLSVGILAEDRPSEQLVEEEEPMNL
# Histone deacetylase 2 (Homo sapiens), sequence (Q92769 whole entry): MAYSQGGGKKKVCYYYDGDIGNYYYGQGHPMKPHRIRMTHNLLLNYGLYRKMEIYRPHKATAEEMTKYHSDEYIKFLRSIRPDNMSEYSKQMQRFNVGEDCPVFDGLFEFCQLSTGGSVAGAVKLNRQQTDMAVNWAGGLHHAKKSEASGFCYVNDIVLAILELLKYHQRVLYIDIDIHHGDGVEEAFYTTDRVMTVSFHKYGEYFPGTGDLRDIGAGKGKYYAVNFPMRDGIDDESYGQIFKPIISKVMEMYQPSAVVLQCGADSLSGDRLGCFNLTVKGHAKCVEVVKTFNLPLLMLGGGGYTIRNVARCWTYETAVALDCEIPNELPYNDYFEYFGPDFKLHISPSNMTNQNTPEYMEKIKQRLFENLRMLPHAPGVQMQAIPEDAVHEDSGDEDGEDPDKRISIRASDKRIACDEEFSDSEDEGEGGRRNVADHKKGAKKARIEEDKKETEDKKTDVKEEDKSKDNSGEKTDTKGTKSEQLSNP
# Histone deacetylase 9 (Homo sapiens), sequence (Q9UKV0 whole entry): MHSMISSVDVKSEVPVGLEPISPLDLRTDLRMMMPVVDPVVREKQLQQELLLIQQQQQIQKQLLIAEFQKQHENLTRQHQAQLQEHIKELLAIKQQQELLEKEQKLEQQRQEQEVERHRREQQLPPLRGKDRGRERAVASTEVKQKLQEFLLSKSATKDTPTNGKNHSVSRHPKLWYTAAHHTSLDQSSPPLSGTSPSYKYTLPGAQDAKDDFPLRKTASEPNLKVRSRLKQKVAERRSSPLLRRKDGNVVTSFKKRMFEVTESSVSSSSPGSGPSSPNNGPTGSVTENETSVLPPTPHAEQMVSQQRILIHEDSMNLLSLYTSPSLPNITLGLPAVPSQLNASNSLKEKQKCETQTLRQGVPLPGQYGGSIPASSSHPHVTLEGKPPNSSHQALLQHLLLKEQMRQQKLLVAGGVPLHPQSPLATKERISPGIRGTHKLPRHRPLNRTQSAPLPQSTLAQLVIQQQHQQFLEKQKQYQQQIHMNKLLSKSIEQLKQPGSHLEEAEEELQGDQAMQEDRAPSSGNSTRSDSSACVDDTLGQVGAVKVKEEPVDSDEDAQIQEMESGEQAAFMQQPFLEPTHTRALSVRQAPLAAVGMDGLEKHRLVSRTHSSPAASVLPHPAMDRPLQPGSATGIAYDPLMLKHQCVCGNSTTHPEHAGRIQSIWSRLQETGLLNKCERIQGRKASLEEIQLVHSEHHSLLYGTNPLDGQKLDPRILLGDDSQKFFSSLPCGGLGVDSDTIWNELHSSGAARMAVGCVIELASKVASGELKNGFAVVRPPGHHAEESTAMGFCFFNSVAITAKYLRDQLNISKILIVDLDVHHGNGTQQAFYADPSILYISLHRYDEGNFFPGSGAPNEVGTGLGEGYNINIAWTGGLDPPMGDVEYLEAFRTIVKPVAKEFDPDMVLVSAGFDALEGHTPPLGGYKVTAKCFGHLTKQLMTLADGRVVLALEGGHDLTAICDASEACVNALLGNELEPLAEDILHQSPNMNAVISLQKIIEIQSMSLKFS
logP ([8]; read-out: logP),IC50 (Histone deacetylase 11; read-out: IC50),Compound,inhibition [1],inhibition [2],GI50 (HCT-116),GI50 (HT-29),inhibition [3],inhibition [4],GI50 (K-562R),GI50 (K562),solubility [5],Activity [6],IC50 (PBL),inhibition [7],inhibition [9],inhibition [10],GI50 (A549),logP [8],IC50 (Histone deacetylase 11)
2.93,10000 nM,C=C(c1ccc(OC)c(/C=C/C(=O)NO)c1)c1cc(OC)c(OC)c(OC)c1,< 50%,< 50%,1.5 nM,2.04 nM,< 50%,< 50%,1.4 nM,1.6 nM,69.3 µg/mL,82.1%,7000 nM,60%,< 50%,95%,1.7 nM,–,–
–,–,C=C(c1ccc(OC)c(O)c1)c1cc(OC)c(OC)c(OC)c1,inactive,inactive,2 nM,276 nM,inactive,inactive,2.2 nM,5.2 nM,11.6 µg/mL,81.7%,1700 nM,inactive,inactive,inactive,10 nM,2.16,Not Active

# From ChEMBL document CHEMBL4325829, “Design and Synthesis of Tubulin and Histone Deacetylase Inhibitor Based on iso-Combretastatin A-4” (J Med Chem, 2018)
